Measured values from ChEMBL document CHEMBL5543142, “Discovery of YFJ-36: Design, Synthesis, and Antibacterial Activities of Catechol-Conjugated β-Lactams against Gram-Negative Bacteria” (J Med Chem, 2024).

Experiments:
Escherichia coli [1] = assay: Antibacterial activity against ESBL-producing multidrug-resistant Escherichia coli clinical isolate 14-1 assessed as inhibition of bacterial growth incubated for 18 to 20 hrs by two fold serial dilution assay; assay type: functional; conditions: time 18-20 hrs
Escherichia coli [2] = assay: Antibacterial activity against ESBL-producing multidrug-resistant Escherichia coli clinical isolate 14-2 assessed as inhibition of bacterial growth incubated for 18 to 20 hrs by two fold serial dilution assay; assay type: functional; conditions: time 18-20 hrs
Escherichia coli [3] = assay: Antibacterial activity against ESBL-producing multidrug-resistant Escherichia coli clinical isolate 14-4 assessed as inhibition of bacterial growth incubated for 18 to 20 hrs by two fold serial dilution assay; assay type: functional; conditions: time 18-20 hrs
Klebsiella pneumoniae [4] = assay: Antibacterial activity against KPC-2 producing multidrug-resistant Klebsiella pneumoniae clinical isolate 15-1 assessed as inhibition of bacterial growth incubated for 18 to 20 hrs by two fold serial dilution assay; assay type: functional; conditions: time 18-20 hrs
Klebsiella pneumoniae [5] = assay: Antibacterial activity against KPC-2 producing multidrug-resistant Klebsiella pneumoniae clinical isolate 15-2 assessed as inhibition of bacterial growth incubated for 18 to 20 hrs by two fold serial dilution assay; assay type: functional; conditions: time 18-20 hrs
Klebsiella pneumoniae [6] = assay: Antibacterial activity against KPC-2 producing multidrug-resistant Klebsiella pneumoniae clinical isolate 15-5 assessed as inhibition of bacterial growth incubated for 18 to 20 hrs by two fold serial dilution assay; assay type: functional; conditions: time 18-20 hrs
Escherichia coli [7] = assay: Antibacterial activity against Escherichia coli ATCC35218 assessed as inhibition of bacterial growth incubated for 18 to 20 hrs by two fold serial dilution assay; assay type: functional; conditions: time 18-20 hrs
Pseudomonas aeruginosa [8] = assay: Antibacterial activity against IMP-4 producing multidrug-resistant Pseudomonas aeruginosa clinical isolate 17-13 assessed as inhibition of bacterial growth incubated for 18 to 20 hrs by two fold serial dilution assay; assay type: functional; conditions: time 18-20 hrs
Pseudomonas aeruginosa [9] = assay: Antibacterial activity against IMP-4 producing multidrug-resistant Pseudomonas aeruginosa clinical isolate 17-1 assessed as inhibition of bacterial growth incubated for 18 to 20 hrs by two fold serial dilution assay; assay type: functional; conditions: time 18-20 hrs
Pseudomonas aeruginosa [10] = assay: Antibacterial activity against IMP-4 producing multidrug-resistant Pseudomonas aeruginosa clinical isolate 19-17 assessed as inhibition of bacterial growth incubated for 18 to 20 hrs by two fold serial dilution assay; assay type: functional; conditions: time 18-20 hrs
Acinetobacter baumannii [11] = assay: Antibacterial activity against OXA-23 producing multidrug-resistant Acinetobacter baumannii clinical isolate 17-2 assessed as inhibition of bacterial growth incubated for 18 to 20 hrs by two fold serial dilution assay; assay type: functional; conditions: time 18-20 hrs
Acinetobacter baumannii [12] = assay: Antibacterial activity against OXA-23 producing multidrug-resistant Acinetobacter baumannii clinical isolate 17-3 assessed as inhibition of bacterial growth incubated for 18 to 20 hrs by two fold serial dilution assay; assay type: functional; conditions: time 18-20 hrs
Pseudomonas aeruginosa [13] = assay: Antibacterial activity against IMP-4 producing multidrug-resistant Pseudomonas aeruginosa clinical isolate 19-5 assessed as inhibition of bacterial growth incubated for 18 to 20 hrs by two fold serial dilution assay; assay type: functional; conditions: time 18-20 hrs
Pseudomonas aeruginosa [14] = assay: Antibacterial activity against IMP-4 producing multidrug-resistant Pseudomonas aeruginosa clinical isolate 19-1 assessed as inhibition of bacterial growth incubated for 18 to 20 hrs by two fold serial dilution assay; assay type: functional; conditions: time 18-20 hrs
Acinetobacter baumannii [15] = assay: Antibacterial activity against OXA-23 producing multidrug-resistant Acinetobacter baumannii clinical isolate 17-5 assessed as inhibition of bacterial growth incubated for 18 to 20 hrs by two fold serial dilution assay; assay type: functional; conditions: time 18-20 hrs
Acinetobacter baumannii [16] = assay: Antibacterial activity against OXA-23 producing multidrug-resistant Acinetobacter baumannii clinical isolate 17-6 assessed as inhibition of bacterial growth incubated for 18 to 20 hrs by two fold serial dilution assay; assay type: functional; conditions: time 18-20 hrs
Acinetobacter baumannii [17] = assay: Antibacterial activity against OXA-23 producing multidrug-resistant Acinetobacter baumannii clinical isolate 17-7 assessed as inhibition of bacterial growth incubated for 18 to 20 hrs by two fold serial dilution assay; assay type: functional; conditions: time 18-20 hrs
Acinetobacter baumannii [18] = assay: Antibacterial activity against OXA-23 producing multidrug-resistant Acinetobacter baumannii clinical isolate 17-8 assessed as inhibition of bacterial growth incubated for 18 to 20 hrs by two fold serial dilution assay; assay type: functional; conditions: time 18-20 hrs
Klebsiella pneumoniae [19] = assay: Antibacterial activity against KPC-2 producing multidrug-resistant Klebsiella pneumoniae clinical isolate 15-3 assessed as inhibition of bacterial growth incubated for 18 to 20 hrs by two fold serial dilution assay; assay type: functional; conditions: time 18-20 hrs
Escherichia coli [20] = assay: Antibacterial activity against Escherichia coli NCTC-13353 assessed as inhibition of bacterial growth incubated for 18 to 20 hrs in presence of CAMHB medium by two fold serial dilution assay; assay type: functional; conditions: time 18-20 hrs
Escherichia coli [21] = assay: Antibacterial activity against Escherichia coli ATCC-35218 assessed as inhibition of bacterial growth incubated for 18 to 20 hrs in presence of CAMHB medium by two fold serial dilution assay; assay type: functional; conditions: time 18-20 hrs
Klebsiella pneumoniae [22] = assay: Antibacterial activity against Klebsiella pneumoniae ATCC BAA-1898 assessed as inhibition of bacterial growth incubated for 18 to 20 hrs in presence of CAMHB medium by two fold serial dilution assay; assay type: functional; conditions: time 18-20 hrs
Escherichia coli [23] = assay: Antibacterial activity against Escherichia coli NCTC-13353 assessed as inhibition of bacterial growth incubated for 18 to 20 hrs in presence of iron-depleted CAMHB medium by two fold serial dilution assay; assay type: functional; conditions: time 18-20 hrs
Escherichia coli [24] = assay: Antibacterial activity against Escherichia coli ATCC-35218 assessed as inhibition of bacterial growth incubated for 18 to 20 hrs in presence of iron-depleted CAMHB medium by two fold serial dilution assay; assay type: functional; conditions: time 18-20 hrs
Klebsiella pneumoniae [25] = assay: Antibacterial activity against Klebsiella pneumoniae ATCC BAA-1898 assessed as inhibition of bacterial growth incubated for 18 to 20 hrs in presence of iron-depleted CAMHB medium by two fold serial dilution assay; assay type: functional; conditions: time 18-20 hrs
[26] = AUC (0 to infinity) in ICR mouse at 20 mg/kg,iv administration measured upto 6 hrs by LC-MS/MS analysis; assay type: ADME, organism-based; conditions: in vivo
[27] = Clearance in ICR mouse at 20 mg/kg,iv administration measured upto 6 hrs by LC-MS/MS analysis; assay type: ADME, organism-based; conditions: in vivo
[28] = Half life in ICR mouse at 20 mg/kg,iv administration measured upto 6 hrs by LC-MS/MS analysis; assay type: ADME, organism-based; conditions: in vivo
[29] = MRT in ICR mouse at 20 mg/kg,iv administration measured upto 6 hrs by LC-MS/MS analysis; assay type: ADME, organism-based; conditions: in vivo
[30] = Volume of distribution at steady state in ICR mouse at 20 mg/kg,iv administration measured upto 6 hrs by LC-MS/MS analysis; assay type: ADME, organism-based; conditions: in vivo, read-out: Vdss
[31] = Plasma protein binding in mouse incubated for 35 mins by LC-MS/MS analysis; assay type: ADME, cell-free; conditions: read-out: PPB (converted)
hERG (KCNH2) = hERG (KCNH2) (Homo sapiens, UniProt Q12809); assay: Inhibition of hERG at 40 uM by whole cell Qpatch assay relative to control; assay type: toxicity
[32] = molecular target: Voltage-gated inwardly rectifying potassium channel KCNH2 (Homo sapiens, UniProt Q12809); assay: Inhibition of hERG by whole cell Qpatch assay; assay type: toxicity
Chain of Voltage-gated inwardly rectifying potassium channel KCNH2 (Q12809 whole entry): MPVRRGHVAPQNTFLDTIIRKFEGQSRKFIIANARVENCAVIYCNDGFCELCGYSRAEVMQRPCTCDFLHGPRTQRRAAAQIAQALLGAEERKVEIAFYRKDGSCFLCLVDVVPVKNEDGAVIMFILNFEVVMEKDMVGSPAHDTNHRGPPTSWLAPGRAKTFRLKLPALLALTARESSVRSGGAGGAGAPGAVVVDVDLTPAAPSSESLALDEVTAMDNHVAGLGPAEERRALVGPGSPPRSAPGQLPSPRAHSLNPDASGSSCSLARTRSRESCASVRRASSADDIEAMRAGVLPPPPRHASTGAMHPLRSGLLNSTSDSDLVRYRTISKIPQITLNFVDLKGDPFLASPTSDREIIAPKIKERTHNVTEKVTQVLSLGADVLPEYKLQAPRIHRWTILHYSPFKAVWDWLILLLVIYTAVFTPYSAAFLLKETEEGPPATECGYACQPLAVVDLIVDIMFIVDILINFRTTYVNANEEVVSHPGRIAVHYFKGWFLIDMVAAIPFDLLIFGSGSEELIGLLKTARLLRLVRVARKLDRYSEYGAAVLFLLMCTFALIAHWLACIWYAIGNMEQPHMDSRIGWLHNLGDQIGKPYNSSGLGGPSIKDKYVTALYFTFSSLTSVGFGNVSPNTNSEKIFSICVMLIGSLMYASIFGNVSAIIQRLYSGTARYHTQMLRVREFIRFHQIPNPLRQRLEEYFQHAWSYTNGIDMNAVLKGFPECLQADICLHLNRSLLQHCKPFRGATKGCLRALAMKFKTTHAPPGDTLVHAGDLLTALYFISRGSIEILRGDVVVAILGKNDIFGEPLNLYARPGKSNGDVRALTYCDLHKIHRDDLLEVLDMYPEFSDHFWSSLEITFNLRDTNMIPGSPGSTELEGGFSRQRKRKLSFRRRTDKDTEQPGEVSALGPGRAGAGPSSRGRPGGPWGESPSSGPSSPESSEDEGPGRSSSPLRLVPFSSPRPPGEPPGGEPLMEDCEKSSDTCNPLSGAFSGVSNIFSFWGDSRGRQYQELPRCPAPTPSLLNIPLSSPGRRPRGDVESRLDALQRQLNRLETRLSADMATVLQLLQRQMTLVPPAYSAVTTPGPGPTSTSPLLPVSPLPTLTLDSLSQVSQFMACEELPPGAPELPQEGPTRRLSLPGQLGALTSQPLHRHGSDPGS

Chain of hERG (KCNH2) (Q12809 whole entry): as above

C[C@@](O/N=C(\C(=O)N[C@@H]1C(=O)N2C(C(=O)O)=C(CSCCNC(=O)c3ccc(O)c(O)c3Cl)CS[C@H]12)c1nc(N)sc1Cl)(C(=O)O)C(F)(F)F.O=C(O)C(F)(F)F
MIC (Escherichia coli [1]): 0.06 µg/mL | MIC (Escherichia coli [2]): 0.5 µg/mL | MIC (Escherichia coli [3]): ≤ 0.03 µg/mL | MIC (Klebsiella pneumoniae [4]): 0.25 µg/mL | MIC (Klebsiella pneumoniae [5]): 0.5 µg/mL | MIC (Klebsiella pneumoniae [6]): 0.125 µg/mL | MIC (Escherichia coli [7]): 0.06 µg/mL | MIC (Pseudomonas aeruginosa [8]): 0.125 µg/mL | MIC (Pseudomonas aeruginosa [9]): 8 µg/mL | MIC (Pseudomonas aeruginosa [10]): 0.06 µg/mL | MIC (Acinetobacter baumannii [11]): 0.06 µg/mL | MIC (Acinetobacter baumannii [12]): 0.5 µg/mL | MIC (Pseudomonas aeruginosa [13]): 0.25 µg/mL | MIC (Pseudomonas aeruginosa [14]): 1 µg/mL | MIC (Acinetobacter baumannii [15]): 0.125 µg/mL | MIC (Acinetobacter baumannii [16]): 0.5 µg/mL | MIC (Acinetobacter baumannii [17]): 0.5 µg/mL | MIC (Acinetobacter baumannii [18]): 0.125 µg/mL | MIC (Klebsiella pneumoniae [19]): 0.5 µg/mL | MIC (Escherichia coli [20]): 0.5 µg/mL | MIC (Escherichia coli [21]): 0.5 µg/mL | MIC (Klebsiella pneumoniae [22]): 16 µg/mL | MIC (Escherichia coli [23]): 0.25 µg/mL | MIC (Escherichia coli [24]): ≤ 0.03 µg/mL | MIC (Klebsiella pneumoniae [25]): 4 µg/mL | AUC(0-inf) [26]: 968 ng·h/mL | clearance [27]: 397 mL/min/kg | half-life [28]: 18 min | MRT [29]: 18 min | Vd [30]: 7.74 L/kg | fraction unbound at 35 min [31]: 0.066 | inhibition at 40 µM (hERG (KCNH2)): 40.5% | IC50 [32]: > 40 µM
